Experimental data taken from US8350064B2, “Fluorescent xanthenes and white light fluorophores” (Board of Supervisors of Louisiana State University And …, priority 2006, dated 2013).
“And” between values parts separate entries of the source, which are not always exact repeats. Equal entries are not always repeated. “Also recorded” adds a separate entry of the source.

Experiments:
[1] = Photobleaching decay of SNAFR-2 in MeOH and fluorescein in 0.1 M NaOH; assay type: physicochemical; conditions: SNAFR-2 in MeOH; excitation 488 nm; at least 1800 s; compared with fluorescein in 0.1 M NaOH
Excerpt: We investigated the photostability of SNAFR-2 in MeOH. […] In MeOH, SNAFR-2 can be excited efficiently at 488 nm, which corresponds to an Ar ion laser line. This wavelength also matches well with the absorbance maximum (λabs=493 nm) of fluorescein in aqueous base. We conducted photostability studies in SNAFR-2 and fluorescein solutions, with the concentration of each selected to have an absorbance of 0.03 at 488 nm. The excitation band-pass was opened to 14 nm, the maximum allowed by the instrument we used. The fluorescence signal was collected using both the S- and T-channels of the instrument. S-channel data were collected through a dual monochromator set to the emission maximum of the particular fluorophore. T-channel data were collected through a 550 nm, long-pass filter. High voltage for the photomultiplier tube (PMT) was set to 950 and 500 V for the S and T channels, respectively. […] Fluorescence intensity was monitored at the emission maximum through a dual monochromator following excitation at 543 nm. […] FIGS. 9A and 9B depict the photobleaching decay of SNAFR-2 in MeOH, and of fluorescein in 0.1 M NaOH, monitored at the emission maximum of each compound (FIG. 9A), or through a 550 nm long-pass filter (FIG. 9B). The fluorescence intensity was normalized for each compound as compared to the intensity at time t=0.

[2] = pKa of SNAFR-2 from absorption and emission spectra as a function of pH; assay type: physicochemical; conditions: 50 mM phosphate buffer with 0.25% DMSO
Description: SNAFR-2 was dissolved in 50 mM phosphate buffer with 0.25% DMSO. As the pH increased, the absorption band centered at 550 nm increased. We attributed this band to the anionic form (A). Concurrently, the absorption band at ca. 460 nm decreased. We attributed the 460 nm band to the neutral form (N). Four isosbestic points were observed, at 484, 394, 327, and 304 nm. The 484 nm isosbestic point is near the 488 nm Ar ion laser line. Thus ratiometric measurements using SNAFR-2 as a probe may be conducted with an Ar ion laser and common, commercially available filter sets.
FIGS. 1A through 1H depict the spectral properties of 30 μM SNAFR-2 in 50 mM phosphate buffer with 0.25% DMSO at various pH values. The arrows indicate the spectral changes as the pH increased in order: 7, 8, 8.5, 9 and 10. A=anionic form. N=neutral form. FIG. 1A depicts Absorption spectra. The * indicates the positions of isosbestic points. FIGS. 1B-D depict excitation spectra, with emission monitored at 400 nm, 540 nm, and 620 nm respectively. FIGS. 1E-H depict emission spectra with excitations at 325 nm, 488 nm, 514 nm, and 543 nm respectively, wavelengths that correspond to common laser lines. All fluorescence spectra were normalized versus the maximum for each data set.
(§1) Most prior organic fluorophores have been limited by a narrow excitation range, which has hindered their use in multiplexing systems with other fluorophores. By contrast, the absorption and excitation spectra of SNAFR-2 allow it to be excited from 260 nm to 600, a range that includes various common laser lines, for example, HeCd at 325 nm, Ar ion at 488 and 514 nm, and HeNe at 543 nm (FIGS. 1A-D). SNAFR-2 is compatible with commercially available filter sets, such as those used in various spectroscopic instruments and fluorescence microscopes. […] The pK*a was calculated as 4.54 or 4.73 at room temperature, determined as pKa-em and pKa-abs, respectively.

HEp2 cells [3] = test: Cellular imaging of live cells (uptake and localization); assay type: cell-based; conditions: fluorescence imaging
Excerpt: There was a strong signal from the endoplasmic reticulum, and a smaller signal from mitochondria. […] No obvious staining of the plasma membrane was seen. However, since the plasma membrane has a large surface area, a relatively low surface signal might not have been detected. Three different filter sets, DAPI, FITC, and Texas Red, were used to select for wavelengths corresponding to the blue, green, and red emissions of SNAFR-2, respectively. […] However, autofluorescence was minimal with the longer wavelength filter sets, FITC and Texas Red.

[4] = Excited-state pK*a of SNAFR-2 estimated using the Forster equation; assay type: physicochemical
Excerpt: as §1

[5] = Spectral properties of SNAFR-2 in DMSO and MeOH; assay type: physicochemical; conditions: for Φ (quantum yield relative to rhodamine 6G in EtOH, Φ = 1): excitation 514 nm
Excerpt: The violet-blue emission increased in these organic solvents as compared to buffer. The green emission was attributed to the neutral form. As expected, the emission corresponding to the anionic form decreased in both solvents.

HEp2 cells [6] = test: Cytotoxicity, CellTiter Blue Cell Viability assay; assay type: cell-based; conditions: 24 hours, up to 100 μM (FIG. 10), dilutions 10 μM to 1.25 μM
Description: Compound toxicity was tested by plating 7500 HEp2 cells per well on a Costar 96-well plate. Cells were allowed to grow for 48 hours and were then fed medium containing twofold dilutions of SNAFR-6 ranging from 10 μM to 1.25 μM. Also, 0.1% Saponin (Sigma) was used as a […] control. Cells were then incubated for 24 hours. Viability was measured using the CellTiter Blue Cell Viability assay (Promega) as per manufacturer's instructions. The fluorescence signal was detected using an excitation wavelength of 520 nm and emission wavelength of 584 nm. Viability was normalized against a scale in which untreated cells were rated 100%, and cells treated with 0.1% saponin were rated 0%. At the concentrations tested, the cytotoxicity of SNAFR-6 was low.

[7] = pKa of SNAFR-6 by absorption and fluorescence titration; aggregation in buffered media; assay type: physicochemical
Excerpt: Both the neutral and anionic forms could be excited simultaneously at wavelengths from ˜420 nm to ˜530 nm, a range that includes both the 488 and 514 nm argon ion laser spectral lines. The neutral emission could be selectively measured by using, for example, an FITC filter set. Also, the anionic form can be selectively excited using a longer excitation wavelength, ˜540 nm to ˜650 nm. Anionic emission can be selectively measured, using, for example, common Texas Red filter sets. SNAFR-6 is thus a versatile fluorophore for ratiometric measurements.

[8] = Fluorescence properties of SNAFR-6 (Stokes shift, quantum yield); assay type: physicochemical
Excerpt: The neutral form of SNAFR-6 could be excited from ˜420 nm to ˜530 nm. Its emission was centered at 571 nm. The anionic form could be efficiently excited over a broad range from ˜420 nm to ˜650 nm, with an excitation maximum at 536 nm. The anionic emission ranged from ˜575 nm to ˜850 nm, centered at 733 nm. SNAFR-6 thus has a very large Stokes shift, 197 nm.
FIG. 7 depicts an overlay of the normalized absorption spectrum of SNAFR-6 in 0.1 M NaOH solution, and the NIR emission from its anionic form in phosphate buffer (50 mM, pH 9.3):DMSO 99:1 v/v. The anionic emission at 733 nm was readily excited throughout a ˜200 nm window, a range that includes the common argon ion laser wavelengths of 488 nm and 514 nm. The absorption maximum is located at 536 nm.
The quantum yield of the anionic (NIR) emission of SNAFR-6 in DMSO was 0.09, measured by reference to rhodamine 6G in EtOH. This is a relatively high value for an NIR dye emitting at a wavelength longer than ˜730 nm.

[9] = method 0-0 excitation, room temperature

O=c1ccc2c(-c3ccccc3)c3ccc4cc(O)ccc4c3oc-2c1 [SNAFR-2]
photostability (photobleaching decay) [1]: far more photostable than fluorescein; also recorded: excellent photostability; also recorded: considerably higher photostability | pKa ([2]; Abs, λisobestic 304, λ1/λ2 265/304, 50 mM phosphate buffer, read-out: pKa): 8.48 | pKa ([2]; Abs, λisobestic 304, λ1/λ2 296/304, 50 mM phosphate buffer, read-out: pKa): 8.54 | pKa ([2]; Abs, λisobestic 304, λ1/λ2 312/304, 50 mM phosphate buffer, read-out: pKa): 8.48 | pKa ([2]; Abs, λisobestic 327, λ1/λ2 312/327, 50 mM phosphate buffer, read-out: pKa): 8.54 | pKa ([2]; Abs, λisobestic 327, λ1/λ2 344/327, 50 mM phosphate buffer, read-out: pKa): 8.51 | pKa ([2]; Abs, λisobestic 327, λ1/λ2 380/327, 50 mM phosphate buffer, read-out: pKa): 8.51 | pKa ([2]; Abs, λisobestic 394, λ1/λ2 344/394, 50 mM phosphate buffer, read-out: pKa): 8.58 | pKa ([2]; Abs, λisobestic 394, λ1/λ2 380/394, 50 mM phosphate buffer, read-out: pKa): 8.68 | pKa ([2]; Abs, λisobestic 484, λ1/λ2 469/484, 50 mM phosphate buffer, read-out: pKa): 8.47 | pKa ([2]; Abs, λisobestic 484, λ1/λ2 511/484, 50 mM phosphate buffer, read-out: pKa): 8.54 | pKa ([2]; Abs, λisobestic 484, λ1/λ2 543/484, 50 mM phosphate buffer, read-out: pKa): 8.52 | pKa ([2]; Em, λex 325, λ1/λ2 541/597, 50 mM phosphate buffer, read-out: pKa): 8.32 | pKa ([2]; Em, λex 325, λ1/λ2 575/597, 50 mM phosphate buffer, read-out: pKa): 8.32 | pKa ([2]; Em, λex 325, λ1/λ2 627/597, 50 mM phosphate buffer, read-out: pKa): 8.38 | pKa ([2]; Em, λex 488, λ1/λ2 542/600, 50 mM phosphate buffer, read-out: pKa): 8.33 | pKa ([2]; Em, λex 488, λ1/λ2 575/600, 50 mM phosphate buffer, read-out: pKa): 8.36 | pKa ([2]; Em, λex 488, λ1/λ2 630/600, 50 mM phosphate buffer, read-out: pKa): 8.35 | pKa ([2]; Em, λex 514, λ1/λ2 539/595, 50 mM phosphate buffer, read-out: pKa): 8.31 | pKa ([2]; Em, λex 514, λ1/λ2 575/595, 50 mM phosphate buffer, read-out: pKa): 8.32 | pKa ([2]; Em, λex 514, λ1/λ2 623/595, 50 mM phosphate buffer, read-out: pKa): 8.34 | pKa ([2]; absorption spectra, phosphate buffer with 0.25% DMSO, read-out: average pKa-abs): 8.53 ± 0.06 | pKa ([2]; different excitation wavelengths, phosphate buffer with 0.25% DMSO, read-out: pKa values inferred from emission spectra): 8.31 to 8.38 | pKa ([2]; different isosbestic points, phosphate buffer with 0.25% DMSO, read-out: pKa values calculated from absorption spectra): 8.47 to 8.68 | pKa ([2]; emission spectra, phosphate buffer with 0.25% DMSO, read-out: average pKa-em): 8.34 ± 0.02 | entry into cells (HEp2 cells [3]): readily entered HEp2 cells | pK*a value ([4]; across different methods to calculate the excitation frequency): 3.3 to 6.3 | pKa-abs* ([4]; method 0-0 absorption): 5.30 | pKa-em* ([4]; method 0-0 absorption): 5.11 | pKa-abs* [4, 9]: 4.73 | pKa-em* [4, 9]: 4.54 | pKa-abs* ([4]; method Absorption): 6.34 | pKa-em* ([4]; method Absorption): 6.15 | pKa-abs* ([4]; method Emission): 3.54 | pKa-em* ([4]; method Emission): 3.34 | pKa-abs* ([4]; method Excitation): 6.25 | pKa-em* ([4]; method Excitation): 6.05 | λem (peak locations in the emission spectra) ([5]; DMSO): 560 nm | Φ (quantum yield relative to rhodamine 6G in EtOH, Φ = 1) ([5]; DMSO): 0.33 | λem (peak locations in the emission spectra) ([5]; MeOH): 550 nm | Φ (quantum yield relative to rhodamine 6G in EtOH, Φ = 1) ([5]; MeOH): 0.41

O=c1ccc2c(-c3ccccc3)c3cc4ccc(O)cc4cc3oc-2c1 [SNAFR-6]
cytotoxicity (cell viability) (HEp2 cells [6]): low and low cytotoxicity | entry into cells (HEp2 cells [3]): readily enters cells | pKa ([7]; absorption titration): 8.18 ± 0.03 | aggregation ([7]; buffered media): Significant aggregation in buffered media was not seen | pKa ([7]; fluorescence titration): 8.1 ± 0.03 | quantum yield of the anionic (NIR) emission ([8]; DMSO, by reference to rhodamine 6G in EtOH): 0.09 | Stokes shift ([8]; anionic form, excitation maximum 536 nm, emission 733 nm, aqueous solution): 197 nm and ~200 nm
